From US9695155B2, “Herbicidal substituted pyrimidinyloxy benzene compounds” (E. I. DU PONT DE NEMOURS AND COMPANY, priority 2013, dated 2017)

Experiments:
ragweed [1] = test: Test A preemergence; type: in vivo, Ambrosia elatior; details: 0 to 100 scale where 0 is no effect and 100 is complete control
In short: (§1)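 Scoring: eye-based comparison with untreated controls, 0 for no effect through 100 for complete control, at about day 10. Treatments: directed soil spray preemergence; foliar spray postemergence on 2–10 cm plants at the one- to two-leaf stage. Medium: loam soil with sand.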

corn [2] = test: Test C postemergence; type: in vivo, Zea mays; details: postemergence; for Plant response rating (0 to 100), Corn: 0 is no effect, 100 is complete control
In short: (§2)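 Seeds were sown in loam–sand blend and sprayed preemergence, while plants at 1- to 4-leaf stage (2–18 cm) in peat-based medium received postemergence sprays; test chemicals were formulated in a non-phytotoxic solvent with surfactant. After 13–15 days in a greenhouse, injury was rated visually against controls, 0 (no effect) to 100 (complete control).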

yellow nutsedge = test: Test C postemergence; type: in vivo, Cyperus esculentus; details: postemergence; for Plant response rating (0 to 100), Nutsedge, Yellow: 0 is no effect, 100 is complete control
In short: as §2

giant foxtail = test: Test C postemergence; type: in vivo, Setaria faberii; details: postemergence; for Plant response rating (0 to 100), Foxtail, Giant: 0 is no effect, 100 is complete control
In short: as §2

ragweed [3] = test: Test A postemergence; type: in vivo, Ambrosia elatior
In short: as §1

barnyardgrass = test: Test A postemergence; type: in vivo, Echinochloa crus-galli
In short: as §1

wheat, winter = test: Test C postemergence; type: in vivo, Triticum aestivum; details: postemergence; for Plant response rating (0 to 100), Wheat: 0 is no effect, 100 is complete control
In short: as §2

Italian ryegrass = test: Test A preemergence; type: in vivo, Lolium multiflorum; details: 0 to 100 scale where 0 is no effect and 100 is complete control
In short: as §1

corn [4] = test: Test A postemergence; type: in vivo, Zea mays
In short: as §1

johnsongrass = test: Test C postemergence; type: in vivo, Sorghum halepense; details: postemergence; for Plant response rating (0 to 100), Johnsongrass: 0 is no effect, 100 is complete control
In short: as §2

large (Lg) crabgrass = test: Test C postemergence; type: in vivo, Digitaria sanguinalis; details: postemergence; for Plant response rating (0 to 100), Crabgrass, Large: 0 is no effect, 100 is complete control
In short: as §2

[5] = 31 g ai/ha, visual, approximately 10 days
[6] = 31 g ai/ha, visual rating, scale 0 to 100 (0 no effect, 100 complete control), 13 to 15 days
[7] = 31 g ai/ha, 0 to 100 scale, 0 no effect, 100 complete control
[8] = 125 g ai/ha, 0 to 100 scale where 0 is no effect and 100 is complete control

FCc1cccc(Oc2ncc(F)cn2)c1-n1cc(I)cn1 [Compound 152]
Plant response rating, Ragweed (ragweed [1]; [5]): 20 | Plant response rating, Ragweed (ragweed [1]; 125 g ai/ha): 40 | Plant response rating (0 to 100), Corn (corn [2]; 4 g ai/ha): 0 | Plant response rating (0 to 100), Corn (corn [2]; 8 g ai/ha): 0 | Plant response rating (0 to 100), Corn (corn [2]; 16 g ai/ha): 5 | Corn plant response rating (corn [2]; [6]): 5 | Plant response rating (0 to 100), Nutsedge, Yellow (yellow nutsedge; 8 g ai/ha): 0 | Plant response rating (0 to 100), Nutsedge, Yellow (yellow nutsedge; 16 g ai/ha): 0 | Nutsedge, Yellow plant response rating (yellow nutsedge; [6]): 0 | Plant response rating (0 to 100), Foxtail, Giant (giant foxtail; 8 g ai/ha): 0 | Plant response rating (0 to 100), Foxtail, Giant (giant foxtail; 16 g ai/ha): 5 | Foxtail, Giant plant response rating (giant foxtail; [6]): 5 | Plant response rating, Ragweed (ragweed [3]; [7]): 20 | Ragweed plant response rating (ragweed [3]; [8]): 20 | Plant response rating, Barnyardgrass (barnyardgrass; [7]): 0 | Barnyardgrass plant response rating (barnyardgrass; [8]): 30 | Plant response rating (0 to 100), Wheat (wheat, winter; 8 g ai/ha): 0 | Plant response rating (0 to 100), Wheat (wheat, winter; 16 g ai/ha): 0 | Wheat plant response rating (wheat, winter; [6]): 0 | Plant response rating, Ryegrass, Italian (Italian ryegrass; [5]): 0 | Plant response rating, Ryegrass, Italian (Italian ryegrass; 125 g ai/ha): 0 | Plant response rating, Corn (corn [4]; [7]): 20 | Corn plant response rating (corn [4]; [8]): 30 | Plant response rating (0 to 100), Johnsongrass (johnsongrass; 8 g ai/ha): 0 | Plant response rating (0 to 100), Johnsongrass (johnsongrass; 16 g ai/ha): 5 | Johnsongrass plant response rating (johnsongrass; [6]): 5 | Plant response rating (0 to 100), Crabgrass, Large (large (Lg) crabgrass; 8 g ai/ha): 5 | Plant response rating (0 to 100), Crabgrass, Large (large (Lg) crabgrass; 16 g ai/ha): 5 | Crabgrass, Large plant response rating (large (Lg) crabgrass; [6]): 5
